Structures can show the parent of a compound that is named as a salt. Where two headings read alike, the source gives them in different places.
Key:
[1] = cited from earlier work
[2] = tested on: Alkaline Phosphatase from Human Blood Serum; assay: Triggering the chemiluminescence of 2c with alkaline phosphatase from human blood serum; format: biochemical
Method: 1. Triggering the Chemiluminescence of 2c with Alkaline Phosphatase from Human Blood Serum. A stock solution of dioxetane 2c was prepared in dioxane/water (1:1 v/v) by photooxygenation of 1c. A sample of fresh blood was drawn from a healthy donor and the red blood cells removed by centrifugation to provide serum for the experiments. Treatment of 3 mL of a 10^-5 M solution of 2c in 0.75 M 2-amino-2-methyl-1-propanol (221) buffer (pH 10.3) at 37° C. with 100 μL of serum led to the typical intensity vs. time profile shown in FIG. 3 where the serum is injected at time zero. Under these conditions the light intensity reaches a constant level of approximately 2.3×10^4 counts/sec. The background luminescence signal from non-enzymatic hydrolysis of 2c is less than 0.05% of the enzyme-generated value. […] The light intensity at any other time point can also be conveniently used to provide a direct measure of the enzyme concentration (FIG. 5). [drawing 31]

[3] = tested on: S-antigen; assay: Chemiluminescent ELISA for S-antigen with dioxetane 2c and alkaline phosphatase conjugate
Text: 4. Chemiluminescent Enzyme-Linked Assays. Enzymatic triggering of appropriately substituted dioxetanes provides an ultrasensitive detection method for enzyme-linked biological assays. For example, phosphate-substituted dioxetane 2c can be used with enzyme linked immunoassays and DNA probes that utilize alkaline phosphatase as the marker for detection. Previous detection methods make use of substrates which develop a color or become fluorescent upon reaction with this enzyme. The sensitivity of the chemiluminescent technique with dioxetane 2c is illustrated by an enzyme-linked immunosorbant assay (ELISA) for the retinal protein, S-antigen. Using procedures of L. A. Donoso (L. A. Donoso, C. F. Merryman, K. E. Edelberg, R. Naids, and C. Kalsow, Investigative Ophthalmology & Visual Science, 26, 561 (1985)), a series of 7 Immulon™ wells were coated with varying amounts of S-antigen (112, 56, 28, 14, 7, 3, 1.3 ng), reacted with a monoclonal antibody (MAbA9-C6) developed in mouse, and finally reacted with anti-mouse IgG coupled to alkaline phosphatase. A chemiluminescence assay of each well was then conducted individually by adding 100 μL of 221 buffer (0.75 M, pH 9.1) containing Mg(OAc)2 (8.0×10^-4 M), CTAB (1.13×10^-3 M), and fluorescein surfactant 3 (5.6×10^-5 M). […] The reagent background luminescence is very low and constant at 15 - 20 counts/sec (FIG. 13). […] Following the experiments with the luminometer, the wells containing the same solution were subsequently used for a photographic detection experiment (FIG. 15). The 7 wells were placed in a holder and incubated for 30 minutes at 37° C. and then photographed at that temperature with ASA 3000 Polaroid™Type 57 film for 15 min in a light-tight incubator. […] The reproducibility of the photographic assay is illustrated in FIG. 16. Four wells coated with 50 ng of antigen were treated with buffer and dioxetane as above, incubated for 1 hour at 45° C., and then photographed with the film for 30 sec at that temperature.

[4] = tested on: Alkaline Phosphatase from Bovine Intestinal Mucosa; assay: Triggering the chemiluminescence of 2c with alkaline phosphatase from bovine intestinal mucosa; format: biochemical
Method: (§1) The same procedure as those employed in the measurement of the decay kinetics was used for the determination of chemiluminescence quantum yields with the following modifications. An accurately measured aliquot of a dioxetane stock solution of known concentration was added to 3 mL of the pre-thermostatted organic solvent or aqueous buffer. The reaction was then triggered by adding the appropriate chemical reagent or enzyme. The total light intensity was integrated by a photon-counting luminometer using an RCA A-31034A gallium-arsenide PMT cooled to -78° C.
2. Triggering the Chemiluminescence of 2c with Alkaline Phosphatase from Bovine Intestinal Mucosa. Alkaline phosphatase from bovine intestinal mucosa was obtained from Sigma Chemical Co. as a suspension of 5.1 mg of protein per mL of 3.2 M (NH4)2 SO4 solution. […] 3. Triggering the Chemiluminescence of 2c with Alkaline Phosphatase: Enhanced Chemiluminescence Efficiency via Intermolecular Energy Transfer in Aqueous Micelles. […] Alkaline phosphatase experiments with dioxetane 2c were conducted at 37° C. with 3 mL of a solution containing: 2c (4.3×10^-5 M), 221 buffer (0.75 M, pH 9.1), Mg(OAc)2 (8.0×10^-4 M), CTAB (1.13×10^-3 M), and fluorescein surfactant 3 (5.6×10^-5 M).
To test the sensitivity of this chemiluminescence method for evaluating concentrations of alkaline phosphatase in solution, a series of experiments were carried out using enzyme stock solutions prepared by dilutions of the commercial sample obtained from Sigma. A conservative estimate of the concentration of phosphatase in the sample was made by assuming that the 5.1 mg of protein per mL in the sample was 100% pure alkaline phosphatase. A molecular weight of 140,000 as also used in calculating molar amounts of enzyme. The conditions were the same as described above with 2c, CTAB, and fluorescer 3 except that the final quantities of enzyme in the 3 mL solutions were:
Enzymatic triggering experiments such as those described above were also carried out in Immumlon™ microtitre wells from Dynatech, Inc. made of transparent polystyrene. The wells were used individually and placed in a light-tight holder which could be thermostatted. The chemiluminescence was detected at the bottom of the well using a fiber optic connected to the photon-counting luminometer described previously. This experimental set-up allowed much smaller reaction volumes to be used. For example, a series of experiments using dioxetane 2c, CTAB, and 3 in 200 μL of 221 buffer with amounts of alkaline phosphatase ranging from 5×10^-15 to 2×10^-18 moles (or 2 attomoles) were carried out. […] A more realistic assumption for the purity of the enzyme sample might be 10%.

[5] = format: physicochemical; details: for half-life: in xylene, read-out: t1/2 at 25° C. (converted); for half-life / k(sec^-1) at 25° C.: 25° C.
Method: Rates for thermal decomposition of the stable dioxetanes were monitored by the decay of chemiluminescence of aerated solutions. A cylindrical Pyrex vial equipped with magnetic stir bar was filled with 3-4 mL of the reaction solvent, sealed with a Teflon-lined screw cap and placed in the thermostatted sample block of the chemiluminescence-measuring luminometer. Temperature control was provided by an external circulating water bath. Appropriate values for the instrument gain and optical slit size were selected. […]. The vial was sealed with a Teflon-lined screw cap to prevent evaporation when high temperatures were used. Measurement of the signal was begun by opening the shutter. The chemiluminescent decay was generally recorded for at least three half-lives. Calculation of the first-order rate constant (k) from the In (Intensity) vs. time data was performed by a computer program utilizing a standard least-squares treatment. The correlation coefficient (r) was typically at least 0.999 and k varied less than 5% between replicate samples.
Activation parameters for decomposition of the dioxetanes were calculated from plots of In k vs. 1/T (Arrhenius eq.) or In k/t vs. 1/T (Eyring eq.) by a standard least-squares linear regression analysis.
Activation Energies for Thermal Decomposition of Dioxetanes

[6] = Base-triggered chemiluminescence of dioxetanes 2a/2b in DMSO, water, CTAB micelles and micelles with fluorescent co-surfactant
Text: The chemiluminescence quantum yield (.PHI.CL) for the decomposition of dioxetanes is defined as the ratio of einsteins of chemiluminescence emitted to moles of dioxetane decomposed. Sufficient energy is released during the reaction from the reaction enthalpy (ΔHR) plus the Arrhenius activation energy (Ea) to populate the singlet excited state of one of the carbonyl cleavage products. Therefore, the maximum quantum yield is 1.0. Another parameter of interest is the chemiexcitation quantum yield (.PHI.CE) which is defined as the ratio of excited states formed to dioxetane decomposed. The chemiexcitation quantum yield is related to the chemiluminescence quantum yield via the fluorescence quantum yield of the dioxetane cleavage (.PHI.F) through the equation: .phi.CL =.phi.CE X .phi.F.
as §1
Spectra of the chemiluminescence from chemically or enzymatcally triggered dioxetanes were obtained by conducting the reaction in a 1-cm square quartz cuvette in the sample compartment of a Spex Fluorolog spectrofluorometer at ambient temperature. Correction for the decay of the chemiluminescence intensity during the wavelength scan was made by accumulating the spectrum in a ratio mode so that the observed spectrum was divided by the signal from an auxiliary detector (EMI 9781B) which measures the total signal as a function of time. The monochromator bandpass was typically 18 nm. For weakly emitting samples, several identical scans were performed and added together to improve the signal-to-noise ratio.
1. Triggering the Chemiluminescence of Hydroxy-Substituted Dioxetane 2a with Base.
2. […] Cationic surfactants such as cetyltrimethylammonium bromide (CTAB) can be used to increase rates for chemical triggering of chemiluminescence from appropriately substituted dioxetanes in aqueous solution. […] The dioxetane is solubilized in the micelles formed by the surfactant and NaOH is added to initiate the chemiluminescence. […] Typically, the experiments were carried out with [2b]=9.1×10^-5 M, [CTAB]=2×10^-3 M, and [OH^- ]=9.1×10^-5 M at 37° C.
Similar experiments were conducted with the benzothiazamide surfactant 4. […] Enzymatic Triggering of Phosphate-Substituted Dioxetane 2c.

[7] = Fluoride-triggered chemiluminescence of silyl-protected dioxetane
Text: However, the chemiluminescent decomposition of this dioxetane can be conveniently triggered at room temperature by removal of the silyl-protecting with fluoride ion to generate the unstable, aryloxide form which cleaves to yield intense blue light.

[8] = thermal decomposition in xylene
[9] = base, CTAB 1.5×10^-3 M with fluorescein surfactant 3 (9×10^-5 M), 37° C.
[10] = benzothiazamide surfactant 4 as co-surfactant, similar experiments with 2b/CTAB/base

Which “decomposition rate relative to protonated form (X=OH)” value ([1]; 25° C.) does the source give for `Oc1ccc(C23OCCOC2(c2ccccc2)OO3)cc1` (centres unmarked) [deprotonated dioxetane (X=O^-)] here?
The value was 5.7×10^6 times.

Which results are given for `COC1(c2cccc(OP(=O)(O)O)c2)OOC12C1CC3CC(C1)CC2C3` (centres unmarked) [2c, 4-Methoxy-4-(3-phosphatephenyl)spiro[1,2-dioxetane-3,2'-adamantane], disodium salt]?
light intensity (constant level) ([2]; 10^-5 M 2c, 100 μL serum, 221 buffer pH 10.3, 37° C.): approximately 2.3×10^4 counts/sec; light intensity at the plateau vs enzyme concentration ([2]; 100 to 1 μL of serum): directly proportional to the enzyme concentration; background luminescence signal from non-enzymatic hydrolysis, of enzyme-generated value ([2]; 221 buffer pH 10.3, 37° C.): less than 0.05%; integrated light intensity vs amount of antigen ([3]; 1.3 to 112 ng S-antigen): correlates with the amount of antigen coated on the well; reagent background luminescence ([3]; 2c 1.36×10^-4 M, CTAB and 3, pH 9.1, 37° C.): 15 - 20 counts/sec; photographic detection, control well with buffer and dioxetane only ([3]; ASA 3000 Polaroid film): not visible; period of chemiluminescence ([4]; 12 pg/mL protein, CTAB and 3, 37° C.): 45 min; detection of alkaline phosphatase ([4]; 200 μL 221 buffer, CTAB and 3, enzyme purity of 10% assumed): less than 0.2 attomoles; chemiluminescence quantum yield ([4]; 221 buffer pH 9.1, 37° C., no CTAB): 3.1×10^-5; period over which light intensity increases ([4]; CTAB and fluorescer, depending on enzyme concentration): 30 to 60 min; background signal from non-enzymatic hydrolysis ([4]; buffer/co-micelle environment): only a few; chemiluminescence quantum yield (.PHI.Cl) ([4]; with CTAB (1.13×10^-3 M)): 2.1×10^-4; increase compared to the enzymatic reaction in the absence of CTAB and 3 ([4]; with CTAB and fluorescein surfactant 3): 500 fold; chemiluminescence quantum yield (.PHI.Cl) ([4]; with CTAB and fluorescein surfactant 3 (5.6×10^-5 M), pH 9.1, 37° C.): 0.015; chemiluminescence efficiency ([4]; with CTAB and fluorescein surfactant 3, pH 9.1, 37° C.): 1.5%; Ea ([5]; Arrhenius plot, o-xylene, 80° to 120° C.): 32.5 kcal/mol; half-life [5]: 6940 days; Ea [5, 8]: 32.5; Log A [5, 8]: 14.9; k(sec^-1) at 25° C. [5, 8]: 1.19e-09 s⁻¹

For `COC1(c2cccc(OC(C)=O)c2)OOC12C1CC3CC(C1)CC2C3` (centres unmarked) [2b, 4-(3-Acetoxyphenyl)-4-methoxyspiro[1,2-dioxetane-3,2'-adamantane]], which “increase in the chemiluminescence quantum yield” value ([6]; CTAB above cmc vs water, 37° C.) is on record?
The value was 19 fold.

What about the “chemiluminescence quantum yield (.PHI.CL)” value ([6]; base in DMSO) of the same compound?
The value was 0.25.

What about the “light yield (chemiluminescence quantum yield)” value ([6]; base in water) of the same compound?
The value was 8.9×10^-6.

What about the chemiluminescence efficiency [6, 9] of the same compound?
The chemiluminescence efficiency was 1.4%.

What about the “chemiluminescence quantum yield (.PHI.CL)” value [6, 9] of the same compound?
The value was 0.014.

What about the “chemiluminescence quantum yield (.PHI.Cl)” value ([6]; base, CTAB above critical micelle concentration, 37° C.) of the same compound?
Its value is 1.7×10^-4.

And the “increase over the luminescence in the absence of CTAB and 3” value ([6]; base, CTAB with fluorescein surfactant 3, 37° C.)?
The value was 500 fold.

And the half-life [5]?
The half-life was 4750 days.

What about the Ea [5, 8] of the same compound?
The Ea was 30.4.

What about the “Log A” value [5, 8] of the same compound?
The value was 13.6.

What about the “k(sec^-1) at 25° C.” value [5, 8] of the same compound?
Its value is 1.73e-09 s⁻¹.

Which chemiluminescence efficiency [7] does the source give for `COC1(c2cccc(O[Si](C)(C)C(C)(C)C)c2)OOC12C1CC3CC(C1)CC2C3` (centres unmarked) here?
The chemiluminescence efficiency was 25%.

What about the chemiluminescence quantum yield [7] of the same compound?
The chemiluminescence quantum yield was 0.25.

And the “efficiency for the formation of the singlet excited ester” value ([7]; corrected for fluorescence quantum yield of the ester)?
Its value is 57%.

And the “maximum of the chemiluminescence spectrum” value ([7]; fluoride, DMSO)?
Its value is 470 nm.

And the “decomposition on the laboratory bench” value (in o-xylene, several months)?
Its value is “no detectable decomposition”.

And the activation energy (thermal decomposition)?
The activation energy was 28.4 kcal/mol.

Which results are given for `Oc1ccc(C23OCCOC2(c2ccccc2)OO3)cc1` (centres unmarked) [hydroxy-substituted dioxetane (X=OH)]?
half-life for decomposition at room temperature ([1]; 25° C.): 57 h; luminescence with base ([1]; base at -30° C.): a flash of blue light; luminescence upon heating ([1]; elevated temperatures): very low levels of luminescence

Which chemiluminescence efficiency [6, 10] does the source give for `CCCCCCCCCCCCCCCCNC(=O)c1nc2ccc(O)cc2s1` [compound 4, 1-Hexadecyl-6-hydroxy-2-benzothiazamide] here?
Its chemiluminescence efficiency is 0.3%.

And the λmax [6, 10]?
Its λmax is 506 nm.

For `COC1(c2cccc(O)c2)OOC12C1CC3CC(C1)CC2C3` (centres unmarked) [aryloxide-substituted dioxetane], which half-life (aryloxide form, 25° C.) is on record?
The half-life was 5 s.

— patent US4959182A, “Method and compositions providing enhanced chemiluminescence from 1,2-dioxetanes” (priority 1989, dated 1990)
